Results: ChEMBL document CHEMBL5154877, “Novel Sphingosine Kinase 1 Inhibitor Suppresses Growth of Solid Tumor and Inhibits the Lung Metastasis of Triple-Negative Breast Cancer” (J Med Chem, 2022)
Active and inactive are the calls of the source. The calls are words filed in the database; no cut-off is given here.

Legend:
HT-29 [1] = assay: Induction of apoptosis in human HT-29 cells at 30 uM incubated for 48 hrs by Annexin V-FITC/PI staining based flow cytometry relative to control; assay type: functional
HT-29 [2] = assay: Induction of cell cycle arrest at G0/G1 phase in human HT-29 cells assessed as reduction in CDK6 expression at 10 to 30 uM incubated for 24 hrs by Western blot analysis; assay type: functional, cell-based; settings: dose 10-30 µM
CAL-51 = assay: Antimigratory activity against human CAL-51 cells assessed as inhibition in cell migration at 30 uM incubated for 16 hrs by crystal violet staining microscopy based transwell migration assay; assay type: functional
MDA-MB-231 [3] = assay: Induction of cell cycle arrest at G0/G1 phase in human MDA-MB-231 cells at 20 uM incubated for 24 hrs by PI staining based flow cytometry; assay type: functional
[4] = Cmax in mouse at 50 mg/kg, ip; assay type: ADME, organism-based; set-up: dose 50 mg/kg, route ip; settings: in vivo
MDA-MB-231 [5] = assay: Antitumor activity against human MDA-MB-231 cells xenografted in BALB/c mouse assessed as tumor growth inhibition at 100 mg/kg/day, ip for 3 weeks and measured every 3 days by caliper method; assay type: functional, organism-based
MDA-MB-231 [6] = assay: Induction of apoptosis in human MDA-MB-231 cells assessed as necrotic cells at 10 uM incubated for 48 hrs by Annexin V-FITC/PI staining based flow cytometry (reference value: 1.42 %); assay type: functional
[7] = Clearance in mouse at 2 mg/kg, iv; assay type: ADME, organism-based; settings: in vivo
MDA-MB-231 [8] = assay: Antimigratory activity against human MDA-MB-231 cells assessed as inhibition of cell migration in human MDA-MB-231 cells at 20 uM incubated for 15 hrs by wound healing assay; assay type: functional, cell-based
MDA-MB-231 [9] = assay: Induction of apoptosis in human MDA-MB-231 cells assessed as late apoptotic cells at 30 uM incubated for 48 hrs by Annexin V-FITC/PI staining based flow cytometry (reference value: 1.96 %); assay type: functional
MDA-MB-231 [10] = assay: Antimetastatic activity against human MDA-MB-231 cells […] assessed as upregulation of phosphorylated beta-catenin at 30 uM incubated for 2 to 12 hrs by western blot analysis; assay type: functional, cell-based; settings: time 2-12 hrs
[11] = Half life in mouse at 50 mg/kg, ip; assay type: ADME, organism-based; settings: in vivo
HT-29 [12] = assay: Induction of cell cycle arrest in human HT-29 cells assessed as accumulation at G0/G1 phase at 10 uM incubated for 24 hrs by PI staining based flow cytometry; assay type: functional
[13] = Tmax in mouse at 50 mg/kg, po; assay type: ADME, organism-based; settings: in vivo
[14] = Oral bioavailability in mouse at 50 mg/kg; assay type: ADME, organism-based; settings: in vivo
MDA-MB-231 [15] = assay: Induction of apoptosis in human MDA-MB-231 cells assessed as necrotic cells at 30 uM incubated for 48 hrs by Annexin V-FITC/PI staining based flow cytometry (reference value: 1.42 %); assay type: functional
MDA-MB-231 [16] = assay: Antimetastatic activity against human MDA-MB-231 cells xenografted in BALB/c mouse assessed as decrease in plasma S1P levels at 50 mg/kg, ip for 28 days; assay type: functional, organism-based; settings: time 28.0 day
MDA-MB-231 [17] = assay: Induction of apoptosis in human MDA-MB-231 cells assessed as viable cells at 30 uM incubated for 48 hrs by Annexin V-FITC/PI staining based flow cytometry (reference value: 94.3 %); assay type: functional; settings: read-out: Activity
HT-29 [18] = assay: Induction of apoptosis in human HT-29 cells assessed as increase in PARP cleavage at 30 uM measured after 48 hrs by western blot analysis; assay type: functional, cell-based
HT-29 [19] = assay: Induction of cell cycle arrest in human HT-29 cells assessed as accumulation at G0/G1 phase at 30 uM incubated for 24 hrs by PI staining based flow cytometry; assay type: functional
[20] = Half life in mouse at 50 mg/kg, po; assay type: ADME, organism-based; settings: in vivo
MDA-MB-231 [21] = assay: Induction of apoptosis in human MDA-MB-231 cells assessed as early apoptotic cells at 10 uM incubated for 48 hrs by Annexin V-FITC/PI staining based flow cytometry (reference value: 2.35 %); assay type: functional
HT-29 [22] = assay: Induction of apoptosis in human HT-29 cells assessed as increase in caspase 3 cleavage at 30 uM measured after 48 hrs by western blot analysis; assay type: functional, cell-based
MDA-MB-231 [23] = assay: Antimetastatic activity against human MDA-MB-231 cells xenografted in BALB/c mouse assessed as decrease in plasma S1P levels at 75 mg/kg, ip for 28 days; assay type: functional, organism-based; settings: time 28.0 day
HT-29 [24] = assay: Induction of cell cycle arrest at G1 phase in human HT-29 cells assessed as increase in P21 expression at 30 uM incubated for 24 hrs by Western blot analysis; assay type: functional, cell-based
MDA-MB-231 [25] = assay: Antimigratory activity against human MDA-MB-231 cells assessed as reduction in cell migration at 20 uM incubated for 8 hrs by crystal violet staining microscopy based transwell migration assay; assay type: functional
[26] = Bioavailability in mouse at 50 mg/kg, ip; assay type: ADME, organism-based; settings: in vivo
[27] = AUClast in mouse at 50 mg/kg, po; assay type: ADME, organism-based; set-up: time 0 - last, dose 50 mg/kg, route po; settings: in vivo
HT-29 [28] = assay: Induction of apoptosis in human HT-29 cells assessed as increase in caspase 8 cleavage at 30 uM measured after 48 hrs by western blot analysis; assay type: functional, cell-based
[29] = Toxicity in BALB/c mouse xenografted with human HT-29 cells assessed as change in body weight at 50 mg/kg/day, ip for 3 weeks and measured every 3 days; assay type: organism-based; settings: in vivo, 504 h
HT-29 [30] = assay: Induction of cell cycle arrest at G0/G1 phase in human HT-29 cells assessed as decrease in p-Rb expression at 10 to 30 uM incubated for 24 hrs by Western blot analysis; assay type: functional, cell-based; settings: dose 10-30 µM
MDA-MB-231 [31] = assay: Induction of apoptosis in human MDA-MB-231 cells assessed as viable cells at 10 uM incubated for 48 hrs by Annexin V-FITC/PI staining based flow cytometry (reference value: 94.3 %); assay type: functional; settings: read-out: Activity
MDA-MB-231 [32] = assay: Antimetastatic activity against human MDA-MB-231 cells […] assessed as downregulation of MMP-9 at 30 uM incubated for 2 to 12 hrs by western blot analysis; assay type: functional, cell-based; settings: time 2-12 hrs
MDA-MB-231 [33] = assay: Antimetastatic activity against human MDA-MB-231 cells […] assessed as inhibition of NF-kappaB p65 phosphorylation at 30 uM incubated for 2 to 12 hrs by Western blot analysis; assay type: functional, cell-based; settings: time 2-12 hrs
MDA-MB-231 [34] = assay: Antitumor activity against human MDA-MB-231 cells xenografted in BALB/c mouse assessed as inhibition in lung metastasis at 75 mg/kg, ip treated for 28 days by H and E staining based assay; assay type: functional, organism-based; settings: time 28.0 day
HT-29 [35] = assay: Induction of cell cycle arrest at G0/G1 phase in human HT-29 cells assessed as reduction in cyclinA expression at 10 to 30 uM incubated for 24 hrs by Western blot analysis; assay type: functional, cell-based; settings: dose 10-30 µM
MDA-MB-231 [36] = assay: Induction of apoptosis in human MDA-MB-231 cells assessed as late apoptotic cells at 10 uM incubated for 48 hrs by Annexin V-FITC/PI staining based flow cytometry (reference value: 1.96 %); assay type: functional
HT-29 [37] = assay: Induction of cell cycle arrest at G0/G1 phase in human HT-29 cells assessed as reduction in cyclinE1 expression at 10 to 30 uM incubated for 24 hrs by Western blot analysis; assay type: functional, cell-based; settings: dose 10-30 µM
[38] = AUClast in mouse at 50 mg/kg, ip; assay type: ADME, organism-based; set-up: time 0 - last, dose 50 mg/kg, route ip; settings: in vivo
HT-29 [39] = assay: Induction of cell cycle arrest at G0/G1 phase in human HT-29 cells assessed as reduction in cyclinD1 expression at 10 to 30 uM incubated for 24 hrs by Western blot analysis; assay type: functional, cell-based; settings: dose 10-30 µM
MDA-MB-231 [40] = assay: Induction of apoptosis in human MDA-MB-231 cells assessed as early apoptotic cells at 30 uM incubated for 48 hrs by Annexin V-FITC/PI staining based flow cytometry (reference value: 2.35 %); assay type: functional
[41] = Tmax in mouse at 50 mg/kg, ip; assay type: ADME, organism-based; settings: in vivo
[42] = Half life in mouse at 2 mg/kg, iv; assay type: ADME, organism-based; settings: in vivo
[43] = Cmax in mouse at 50 mg/kg, po; assay type: ADME, organism-based; set-up: dose 50 mg/kg, route po; settings: in vivo
[44] = Toxicity in BALB/c mouse xenografted with human MDA-MB-231 cells assessed as body weight change at 50 to 75 mg/kg, ip administrated for 28 days; assay type: organism-based; settings: in vivo, 672 h, dose 50-75 mg/kg, time 28 day
MDA-MB-231 [45] = assay: Antimetastatic activity against human MDA-MB-231 cells […] assessed as inhibition of FSCN1 phosphorylation at 30 uM incubated for 2 to 12 hrs by western blot analysis; assay type: functional, cell-based; settings: time 2-12 hrs
[46] = AUClast in mouse at 2 mg/kg, iv; assay type: ADME, organism-based; set-up: time 0 - last, dose 2 mg/kg, route iv; settings: in vivo
HT-29 [47] = assay: Antitumor activity against human HT-29 cells xenografted in BALB/c mouse assessed as tumor growth inhibition at 50 mg/kg/day, ip for 3 weeks and measured every 3 days by caliper method; assay type: functional, organism-based

For `Cc1cc(OCc2ccc(CN3CCC[C@@H]3CO)cc2)cc(CS(=O)(=O)c2ccccc2)c1Br`, the Activity (HT-29 [1]) was 50%, the Activity (HT-29 [2]) was “Active” and the Activity (CAL-51) was “Active”. For the same compound, the Activity (MDA-MB-231 [3]) was “Active”, the Cmax [4] was 7860 ng/mL and the Activity (MDA-MB-231 [5]) was “Active”. The Activity (MDA-MB-231 [6]) was 3.69%, the clearance [7] was 81.1 mL/min/kg and the Activity (MDA-MB-231 [8]) was “Active”. The Activity (MDA-MB-231 [9]) was 24.5%, the Activity (MDA-MB-231 [10]) was “Active” and the half-life [11] was 4.2 h. For the same compound, the Activity (HT-29 [12]) was “Active”, the Tmax [13] was 0.83 h and the bioavailability [14] was 2.38%. For the same compound, the Activity (MDA-MB-231 [15]) was 6.82%, the Activity (MDA-MB-231 [16]) was “Active” and the viability at 30 µM (MDA-MB-231 [17]) was 36.4%. The Activity (HT-29 [18]) was “Active”, the Activity (HT-29 [19]) was “Active” and the half-life [20] was 8.13 h. For the same compound, the Activity (MDA-MB-231 [21]) was 3.67%, the Activity (HT-29 [22]) was “Active” and the Activity (MDA-MB-231 [23]) was “Active”. For the same compound, the Activity (HT-29 [24]) was “Active”, the Activity (MDA-MB-231 [25]) was “Active” and the bioavailability [26] was 79%. For the same compound, the AUC(0-t) [27] was 242 ng·h/mL, the Activity (HT-29 [28]) was “Active” and the Activity [29] was “Non-Toxic”. For the same compound, the Activity (HT-29 [30]) was “Active”, the viability at 10 µM (MDA-MB-231 [31]) was 65.4% and the Activity (MDA-MB-231 [32]) was “Active”. The Activity (MDA-MB-231 [33]) was “Active”, the Activity (MDA-MB-231 [34]) was “Active” and the Activity (HT-29 [35]) was “Active”. The Activity (MDA-MB-231 [36]) was 9.16%, the Activity (HT-29 [37]) was “Active” and the AUC(0-t) [38] was 8060 ng·h/mL. The Activity (HT-29 [39]) was “Active”, the Activity (MDA-MB-231 [40]) was 32.2% and the Tmax [41] was 0.18 h. For the same compound, the half-life [42] was 2.23 h, the Cmax [43] was 171 ng/mL and the Activity [44] was “Non-Toxic”. For the same compound, the Activity (MDA-MB-231 [45]) was “Active”, the AUC(0-t) [46] was 408 ng·h/mL and the Activity (HT-29 [47]) was “Active”.
